From US10357481B2 (MERCK SHARP & DOHME CORP., priority 2015, dated 2019)

Target: T1, human PDE2A1 (Homo sapiens, UniProt O00408)
T1 construct: GST; purchased BPS Bioscience (San Diego, Calif.) 60020; host or cells: insect cells
Assay: IMAP FP PDE selectivity panel, human PDE2A1
Assay type: biochemical
Conditions: Lab B; read-out: Human PDE2 Ki (nM) Lab B
Method in brief: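 IMAP FP read-out, run at room temperature in parallel with PDE1–11: enzyme at 20% substrate conversion, 50 nM FAM-cAMP containing 1000 nM cGMP, Tris pH 7.2/MgCl2/DTT buffer. Compounds as ten 3-fold dilutions. Reaction 60 min, stopped with binding reagent for 1 h before polarization measurement.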

T1 sequence (O00408 1-920 isoform O00408-2): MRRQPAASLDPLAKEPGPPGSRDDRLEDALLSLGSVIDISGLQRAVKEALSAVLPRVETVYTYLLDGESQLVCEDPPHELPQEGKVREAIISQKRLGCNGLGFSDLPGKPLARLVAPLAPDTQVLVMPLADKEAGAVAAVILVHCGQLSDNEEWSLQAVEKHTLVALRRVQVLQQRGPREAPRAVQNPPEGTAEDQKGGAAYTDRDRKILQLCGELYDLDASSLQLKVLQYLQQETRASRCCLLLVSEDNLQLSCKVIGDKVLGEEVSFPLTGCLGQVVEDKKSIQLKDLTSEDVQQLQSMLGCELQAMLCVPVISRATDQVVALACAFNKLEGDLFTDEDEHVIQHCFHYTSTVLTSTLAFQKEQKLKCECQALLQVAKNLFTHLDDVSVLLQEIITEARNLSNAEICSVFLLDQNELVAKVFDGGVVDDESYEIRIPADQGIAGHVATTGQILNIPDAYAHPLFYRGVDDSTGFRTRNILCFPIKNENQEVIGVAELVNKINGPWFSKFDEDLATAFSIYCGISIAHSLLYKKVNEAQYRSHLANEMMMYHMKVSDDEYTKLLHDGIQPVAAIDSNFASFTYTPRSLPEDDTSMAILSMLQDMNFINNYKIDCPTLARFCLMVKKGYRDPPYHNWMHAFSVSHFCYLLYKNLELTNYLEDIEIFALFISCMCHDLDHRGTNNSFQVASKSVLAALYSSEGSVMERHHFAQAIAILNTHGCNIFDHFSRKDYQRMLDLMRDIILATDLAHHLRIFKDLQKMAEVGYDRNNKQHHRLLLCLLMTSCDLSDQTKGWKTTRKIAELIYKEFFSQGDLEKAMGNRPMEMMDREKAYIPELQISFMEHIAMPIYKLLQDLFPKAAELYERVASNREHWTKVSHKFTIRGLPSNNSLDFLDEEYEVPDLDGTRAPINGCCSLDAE

Compound | Ki
Cc1cc(NC2(c3ccc(C(F)(F)F)c(F)c3)CC2)n2nc(CO)nc2n1 [Example 196, (7-(1-(3-Fluoro-4-(trifluoromethyl)phenyl)cyclopropylamino)-5-methyl-[1,2,4]triazolo [1,5-a]pyrimidin-2-yl)methanol] | 321 nM
Cc1cc(NC2(c3ccc(C(F)(F)F)cc3)COC2)n2ncnc2n1 [Example 199, 5-Methyl-N-(3-(4-(trifluoromethyl)phenyl)oxetan-3-yl)-[1,2,4]triazolo [1,5-a]pyrimidin-7-amine] | 167 nM
Cc1cc(NC2(c3cccc(C(F)(F)F)c3F)COC2)n2ncnc2n1 [Example 200, N-(3-(2-Fluoro-3-(trifluoromethyl)phenyl)oxetan-3-yl)-5-methyl-[1,2,4]triazolo [1,5-a]pyrimidin-7-amine] | > 2960 nM
Cc1cc(NC2(c3ccc(C(F)(F)F)c(F)c3)CC2)n2nc(C(F)F)nc2n1 [Example 201, 2-(Difluoromethyl)-N-(1-(3-fluoro-4-(trifluoromethyl)phenyl)cyclopropyl)-5-methyl-[1,2,4]triazolo [1,5-a]pyrimidin-7-amine] | 131 nM
Cc1cc(N[C@@H](c2ccc(C(F)(F)F)c(F)c2)C(C)(C)C)n2nc(CO)nc2n1 [Example 206, (R)-(7-(1-(3-Fluoro-4-(trifluoromethyl)phenyl)-2,2-dimethylpropylamino)-5-methyl-[1,2,4]triazolo [1,5-a]pyrimidin-2-yl)methanol] | 184 nM
COc1cc(N[C@@H](c2ccc(C(F)(F)F)c(F)c2)C(C)(C)C)n2ncnc2n1 [Example 233, (R)—N-(1-(3-Fluoro-4-(trifluoromethyl)phenyl)-2,2-dimethylpropyl)-5-methoxy-[1,2,4]triazolo[1,5-a]pyrimidin-7-amine] | 256 nM
CCOc1cc(N[C@@H](c2ccc(C(F)(F)F)c(F)c2)C(C)(C)C)n2ncnc2n1 [Example 234, (R)-5-Ethoxy-N-(1-(3-fluoro-4-(trifluoromethyl)phenyl)-2,2-dimethylpropyl)-[1,2,4]triazolo [1,5-a]pyrimidin-7-amine] | 1230 nM
CC(C)(C)[C@@H](Nc1cc(O)nc2ncnn12)c1ccc(C(F)(F)F)c(F)c1 [Example 238, (R)-7-(1-(3-Fluoro-4-(trifluoromethyl)phenyl)-2,2-dimethylpropylamino)-[1,2,4]triazolo[1,5-a]pyrimidin-5-ol] | 335 nM
CC(C)(C)[C@@H](Nc1cc(N)nc2ncnn12)c1ccc(C(F)(F)F)c(F)c1 [Example 240, (R)-N^7-(1-(3-Fluoro-4-(trifluoromethyl)phenyl)-2,2-dimethylpropyl)-[1,2,4]triazolo [1,5-a]pyrimidine-5,7-diamine] | 108 nM
CNc1cc(N[C@@H](c2ccc(C(F)(F)F)c(F)c2)C(C)(C)C)n2ncnc2n1 [Example 241, (R)-N^7-(1-(3-Fluoro-4-(trifluoromethyl)phenyl)-2,2-dimethylpropyl)-N^5-methyl-[1,2,4]triazolo [1,5-a]pyrimidine-5,7-diamine] | 375 nM
CN(C)c1cc(N[C@@H](c2ccc(C(F)(F)F)c(F)c2)C(C)(C)C)n2ncnc2n1 [Example 242, (R)-N^7-(1-(3-Fluoro-4-(trifluoromethyl)phenyl)-2,2-dimethylpropy1)-N^5,N^5-dimethyl-[1,2,4]triazolo [1,5-a]pyrimidine-5,7-diamine] | 616 nM
OCCCc1cc(NC2(c3ccc(C(F)(F)F)c(F)c3)CC2)n2ncnc2n1 [Example 245, 3-(7-((1-(3-Fluoro-4-(trifluoromethyl)phenyl)cyclopropyl)amino)-[1,2,4]triazo[1,5-a]pyrimidin-5-yl)propan-1-ol] | 204 nM
OCCc1cc(NC2(c3ccc(C(F)(F)F)c(F)c3)CC2)n2ncnc2n1 [Example 251, 2-(7-(1-(3-Fluoro-4-(trifluoromethyl)phenyl)cyclopropylamino)-[1,2,4]triazolo[1,5-a]pyrimidin-5-yl)ethanol] | 140 nM
Cc1cc(NC2(c3ccc(C(F)(F)F)c(F)c3)CC2)n2nc(N(C)C)nc2n1 [Example 256, N^7-{1-[3-Fluoro-4-(trifluoromethyl)phenyl]cyclopropyl}-N^2,N^2,5-trimethyl[1,2,4]triazolo[1,5-a]pyrimidine-2,7-diamine] | 608 nM
C[C@@H](Nc1cnnc2ncnn12)c1ccc(S(F)(F)(F)(F)F)cc1 [Example 259, (R)—N-{1-[4-(Pentafluoro-λ^6-sulfanyl)phenyl]ethyl}-[1,2,4]triazolo[5,1-a][1,2,4]trizain-4-amine] | 1430 nM
Cc1cc(OC2(c3ccc(C(F)(F)F)cc3)CC2)n2ncnc2n1 [Example 262, 5-Methyl-7-({1-[4-(trifluoromethyl)phenyl]cyclopropyl}oxy)[1,2,4]triazolo[1,5-a]pyrimidine] | 137 nM
Cc1cc(NC2(c3ccc(C(F)(F)F)c(F)c3)CC2)n2ncnc2c1 [Example 263, N-(1-(3-Fluoro-4-(trifluoromethyl)phenyl)cyclopropyl)-7-methyl-[1,2,4]triazolo[1,5-a]pyridin-5-amine] | 101 nM
Cc1cc(N[C@@H](c2ccc(C(F)(F)F)c(F)c2)C(C)(C)C)n2ncnc2c1 [Example 264, (R)—N-{1-[3-Fluoro-4-(trifluoromethyl)phenyl]-2,2-dimethylpropyl}-7-methyl-[1,2,4]triazolo[1,5-a]pyridin-5-amine] | 292 nM

Compounds with a lower Ki, results first:

Ki | Compound
80 nM | Cc1cc(NC2(c3ccc(C(F)(F)F)c(F)c3)CC2)n2nc(CF)nc2n1 [Example 197, N-(1-(3-Fluoro-4-(trifluoromethyl)phenyl)cyclopropyl)-2-(fluoromethyl)-5-methyl-[1,2,4]triazolo [1,5-a]pyrimidin-7-amine]
83 nM | Cc1cc(NC2(c3ccc(C(F)(F)F)c(F)c3)COC2)n2ncnc2n1 [Example 198, N-(3-(3-Fluoro-4-(trifluoromethyl)phenyl)oxetan-3-yl)-5-methyl-[1,2,4]triazolo [1,5-a]pyrimidin-7-amine]
56 nM | Cc1cc(N[C@@H](c2ccc(C(F)(F)F)c(F)c2)C(C)(C)C)n2nc(C)nc2n1 [Example 202, (R)-N-(1-(3-Fluoro-4-(trifluoromethyl)phenyl)-2,2-dimethylpropyl)-2,5-dimethyl-[1,2,4]triazolo [1,5-a]pyrimidin-7-amine]
33 nM | CCc1nc2nc(C)cc(N[C@@H](c3ccc(C(F)(F)F)c(F)c3)C(C)(C)C)n2n1 [Example 203, (R)-2-Ethyl-N-(1-(3-fluoro-4-(trifluoromethyl)phenyl)-2,2-dimethylpropyl)-5-methyl-[1,2,4]triazolo [1,5-a]pyrimidin-7-amine]
17 nM | CCCc1nc2nc(C)cc(N[C@@H](c3ccc(C(F)(F)F)c(F)c3)C(C)(C)C)n2n1 [Example 204, (R)-N-(1-(3-Fluoro-4-(trifluoromethyl)phenyl)-2,2-dimethylpropyl)-5-methyl-2-propyl-[1,2,4]triazolo [1,5-a]pyrimidin-7-amine]
24 nM | Cc1cc(N[C@@H](c2ccc(C(F)(F)F)c(F)c2)C(C)(C)C)n2nc(C3CC3)nc2n1 [Example 205, (R)-2-Cyclopropyl-N-(1-(3-fluoro-4-(trifluoromethyl)phenyl)-2,2-dimethylpropyl)-5-methyl-[1,2,4]triazolo [1,5-a]pyrimidin-7-amine]
74 nM | Cc1cc(N[C@@H](c2ccc(C(F)(F)F)c(F)c2)C(C)(C)C)n2nc(C(F)F)nc2n1 [Example 207, (R)-2-(Difluoromethyl)-N-(1-(3-fluoro-4-(trifluoromethyl)phenyl)-2,2-dimethylpropyl)-5-methyl-[1,2,4]triazolo [1,5-a]pyrimidin-7-amine]
2.7 nM | Fc1cc(C2(Nc3cc(Cl)nc4ncnn34)CC2)ccc1C(F)(F)F [Example 208, 5-Chloro-N-(1-(3-fluoro-4-(trifluoromethyl)phenyl)cyclopropyl)-[1,2,4]triazolo [1,5-a]pyrimidin-7-amine]
18 nM | COc1cc(NC2(c3ccc(C(F)(F)F)c(F)c3)CC2)n2ncnc2n1 [Example 235, N-(1-(3-Fluoro-4-(trifluoromethyl)phenyl)cyclopropyl)-5-methoxy-[1,2,4]triazolo [1,5-a]pyrimidin-7-amine]
13 nM | CN(C)c1cc(NC2(c3ccc(C(F)(F)F)c(F)c3)CC2)n2ncnc2n1 [Example 239, N^7-(1-(3-Fluoro-4-(trifluoromethyl)phenyl)cyclopropyl)-N,N-dimethyl-[1,2,4]triazolo[1,5-a]pyrimidine-5,7-diamine]
46 nM | Cc1cc(N(C)C2(c3ccc(C(F)(F)F)c(F)c3)CC2)n2ncnc2n1 [Example 246]
40 nM | Cc1cc(N[C@@H](c2ccc(C(F)(F)F)c(F)c2)C(C)(C)C)n2nc(CCCO)nc2n1 [Example 249, (R)-3-(7-(1-(3-Fluoro-4-(trifluoromethyl)phenyl)-2,2-dimethylpropylamino)-5-methyl-[1,2,4]triazolo[1,5-a]pyrimidin-2-yl)propan-1-ol]
57 nM | Cc1cc(N[C@@H](c2ccc(C(F)(F)F)c(F)c2)C(C)(C)C)n2nc(CCO)nc2n1 [Example 250, (R)-2-(7-(1-(3-Fluoro-4-(trifluoromethyl)phenyl)-2,2-dimethylpropylamino)-5-methyl-[1.2.4]triazolo[1,5-a]pyrimidin-2-yl)ethanol]
60 nM | Cc1cc(NC(c2ccc(C(F)(F)F)c(F)c2)C(C)(C)N)n2ncnc2n1 (stereo not shown) [Example 252, 1-(3-Fluoro-4-(trifluoromethyl)phenyl)-2-methyl-N-(5-methyl-[1,2,4]triazolo[1,5-a]pyrimidin-7-yl)propane-1,2-diamine]
22 nM | Cc1cc(NC2(c3ccc(C(F)(F)F)c(F)c3)CC2)n2nc(N)nc2n1 [Example 255, N^7-{1-[3-Fluoro-4-(trifluoromethyl)phenyl]cyclopropyl}-5-methyl[1,2,4]triazolo[1,5-a]pyrimidine-2,7-diamine]
10 nM | CNc1nc2nc(C)cc(NC3(c4ccc(C(F)(F)F)c(F)c4)CC3)n2n1 [Example 257, N^7-{1-[3-Fluoro-4-(trifluoromethyl)phenyl]cyclopropyl}-N^2,5-dimethyl[1,2,4]triazolo[1,5-a]pyrimidine-2,7-diamine]
